Several values for one entry are separate records, joined by “and”; a condition that tells them apart may be missing. Equal entries are not always repeated. Structures can show the parent of a compound that is named as a salt. Where two headings read alike, the source gives them in different places.
Columns and labels:
wildtype Wnt pathway = assay: HEK293 TOP reporter assay, wildtype Wnt pathway stimulated with Wnt-3a; type: cell-based, human
Protocol: (§1) Measurement of luciferase expression was done as described for the constitutive active Wnt assay.
In order to discover and characterize small molecules which inhibit the wildtype Wnt pathway, a cellular reporter assay was employed. […] Stable transfectants were generated by selection with 300 μg/ml Hygromycin.

[1] = test system: HCT116 FOP control reporter cell line; assay: HCT116 FOPFlash control reporter assay (FOP control vector, non-functional TCF elements); type: cell-based; settings: HCT116 FOP control reporter cells, 36 hours incubation, luciferase expression
Excerpt: (§2) In a parallel approach, HCT116 cells were cotransfected with the FOP control vector and pcDNA3. The FOP vector is identical to the TOP construct, but it contains instead of functional TCF elements a randomized, non-functional sequence. For this transfection a stable transfected cell line was generated as well.

[2] = test system: constitutive active colorectal cancer cell (CRC) Wnt pathway; assay: HCT116 TOPFlash cellular reporter assay (Super TopFlash luciferase), constitutive active Wnt pathway; type: cell-based; settings: for IC50: HCT116 TOP reporter cells, 36 hours incubation, luciferase expression
Protocol: In order to discover and characterize small molecules which inhibit the constitutive active colorectal cancer cell (CRC) Wnt pathway, a cellular reporter assay was employed. […] Stable transfectants were generated by cotransfection with pcDNA3 and selection of stable transfected cells with 1 mg/ml G418.

[3] = test system: HEK293 FOP control reporter cell line; assay: HEK293 FOP control reporter assay; type: cell-based, human; settings: read-out: HEK FOP IC50
Protocol: as §1
as §2, with “HEK293” for “HCT116”, “well, based on selection with Geneticin (1 mg/ml).” for “well.”

[4] = Solubility in buffer / aqueous media; type: physicochemical; settings: pH 6.5, aqueous buffer; buffer at pH6.5
Excerpt: Some of the compounds of general formula (I) show low solubility in aqueous media and organic solvents. This can affect the possibility to assess the activity of such compounds with the described assays. […] Therefore, the high IC50 value of the compound might be a result of the low solubility.

[5] = Homo sapiens, HEK293, 16 h; read-out: HEK TOP OncoFlash IC50

Row | Compound | IC50 (wildtype Wnt pathway; HEK293 TOP cells, EC50 concentration of recombinant Wnt-3a, 16 hours; read-out: HEK TOP OncoFlash IC50) [nM] | IC50 [1] [nM] | IC50 [2] [nM] | IC50 ([3]; HEK293 FOP control cells, EC50 concentration of recombinant Wnt-3a, 16 hours) [nM] | IC50 (wildtype Wnt pathway; [5]) [nM] | IC50 ([1]; Homo sapiens, HCT-116, 36 h) [nM] | IC50 ([2]; Homo sapiens, HCT-116, 36 h) [nM] | IC50 ([3]; Homo sapiens, HEK293, 16 h) [nM] | IC50 (wildtype Wnt pathway; Homo sapiens, HEK293, 16 h, read-out: HEK TOP OncoFlash IC50) [nM] | IC50 value in the HCT116 TOPFlash assay (in words) ([2]; might be a result of the low solubility) | solubility [4]
1 | C[C@H](C(=O)Nc1cc(C(=O)Nc2ccc(-c3ccc(N(C)C)cc3)nc2)ccc1OC(F)(F)F)N1CCOCC1 (single isomer, unassigned) [Example 115, N-{6-[4-(dimethylamino)phenyl]pyridin-3-yl}-3-{[(2S)-2-(morpholin-4-yl)propanoyl]amino}-4-(trifluoromethoxy)benzamide or N-{6-[4-(dimethylamino)phenyl]pyridin-3-yl}-3-{[(2R)-2-(morpholin-4-yl)propanoyl]amino}-4-(trifluoromethoxy)benzamide] | 52 | 2200 | 8.8 | 4700 | – | – | – | – | – | – | –
2 | COCc1ccc(C(=O)Nc2nnc(-c3ccccc3)s2)cc1NC(=O)C1(N2CCOCC2)CC1 [Example 43, 4-(methoxymethyl)-3-({[1-(morpholin-4-yl)cyclopropyl]carbonyl}amino)-N-(5-phenyl-1,3,4-thiadiazol-2-yl)benzamide] | – | – | – | – | 110 | ≥ 50000 | 49.1 | ≥ 50000 | – | – | –
3 | COc1ccc(C(=O)Nc2ccc(-c3ccccc3F)nc2)cc1NC(=O)CN1CCOCC1 [Example 1, N-[6-(2-fluorophenyl)pyridin-3-yl]-4-methoxy-3-[(morpholin-4-ylacetyl)amino]benzamide] | – | – | – | – | 3300 | ≥ 50000 | 1140 | ≥ 50000 | – | – | –
4 | O=C(CN1CCOCC1)Nc1cc(NC(=O)c2ncc(-c3ccccc3)s2)ccc1OC(F)(F)F [Example 16, N-{3-[(morpholin-4-ylacetyl)amino]-4-(trifluoromethoxy)phenyl}-5-phenyl-1,3-thiazole-2-carboxamide] | – | – | – | – | 92 | ≥ 50000 | 17.8 | ≥ 50000 | – | – | –
5 | O=C(Nc1nnc(-c2ccccc2)s1)c1ccc(OC2CC2)c(NC(=O)C2(N3CCOCC3)CC2)c1 [Example 159, 4-(cyclopropyloxy)-3-({[1-(morpholin-4-yl)cyclopropyl]carbonyl}amino)-N-(5-phenyl-1,3,4-thiadiazol-2-yl)benzamide] | – | – | – | – | 54 | ≥ 50000 | 41.4 | ≥ 50000 | – | – | –
6 | CC(C(=O)Nc1cc(C(=O)Nc2nnc(-c3ccccc3)s2)ccc1OC(F)F)N1CCN(C)CC1 (stereo not drawn) [Example 42, 4-(difluoromethoxy)-3-{[2-(4-methylpiperazin-1-yl)propanoyl]amino}-N-(5-phenyl-1,3,4-thiadiazol-2-yl)benzamide trifluoroacetate (1:1)] | – | – | – | – | – | ≥ 50000 | 242 | ≥ 50000 | 106 | – | –
7 | Nc1ccc(-c2ccc(NC(=O)c3ccc(OC(F)(F)F)c(NC(=O)CN4CCOCC4)c3)cn2)cc1 [Example 126, N-[6-(4-aminophenyl)pyridin-3-yl]-3-[(morpholin-4-ylacetyl)amino]-4-(trifluoromethoxy)benzamide] | – | – | – | – | 36 | ≥ 50000 | 52.5 | ≥ 50000 | – | – | –
8 | CC(C)(C)c1ccc(NC(=O)c2ccc(-c3ccccc3)s2)cc1NC(=O)CN1CCOCC1 [Example 19, N-{4-tert-butyl-3-[(morpholin-4-ylacetyl)amino]phenyl}-5-phenylthiophene-2-carboxamide] | – | – | – | – | 990 | 11000 | 26.2 | ≥ 50000 | – | – | –
9 | COCc1ccc(C(=O)Nc2nnc(-c3ccccc3)s2)cc1NC(=O)CN1CCN(C)CC1 [Example 46, 4-(methoxymethyl)-3-{[(4-methylpiperazin-1-yl)acetyl]amino}-N-(5-phenyl-1,3,4-thiadiazol-2-yl)benzamide] | – | – | – | – | 690 | ≥ 50000 | 164 | ≥ 50000 | – | – | –
10 | CS(=O)(=O)Cc1ccc(C(=O)Nc2nnc(-c3ccccc3)s2)cc1NC(=O)C1(N2CCN(C3CC3)CC2)CC1 [Example 48, 3-({[1-(4-cyclopropylpiperazin-1-yl)cyclopropyl]carbonyl}amino)-4-[(methylsulfonyl)methyl]-N-(5-phenyl-1,3,4-thiadiazol-2-yl)benzamide] | – | – | – | – | 130 | ≥ 50000 | 73.7 | ≥ 50000 | – | – | –
11 | COc1ccc(C(=O)Nc2ccc(-c3ccccc3F)nc2)cc1NC(=O)C1(N2CCOCC2)CC1 [Example 80, N-[6-(2-fluorophenyl)pyridin-3-yl]-4-methoxy-3-({[1-(morpholin-4-yl)cyclopropyl]carbonyl}amino)benzamide] | – | – | – | – | 150 | ≥ 50000 | 27 | 10000 | – | – | –
12 | COC(=O)c1ccc(C(=O)Nc2nnc(-c3ccccc3)s2)cc1NC(=O)CN1CCN(C)CC1 [Example 105, methyl 2-{[(4-methylpiperazin-1-yl)acetyl]amino}-4-[(5-phenyl-1,3,4-thiadiazol-2-yl)carbamoyl]benzoate] | – | – | – | – | 300 | ≥ 50000 | 64 | ≥ 50000 | – | – | –
13 | CN1CCN(CC(=O)Nc2cc(C(=O)Nc3nnc(-c4ccccc4)s3)ccc2OC(F)(F)F)CC1 [Example 54, 3-{[(4-methylpiperazin-1-yl)acetyl]amino}-N-(5-phenyl-1,3,4-thiadiazol-2-yl)-4-(trifluoromethoxy)benzamide] | – | – | – | – | 130 | 28000 | 104 | ≥ 50000 | – | – | –
14 | O=C(CN1CCOCC1)Nc1cc(NC(=O)c2ccc(-c3ccccc3)s2)ccc1OC(F)(F)F [Example 17, N-{3-[(morpholin-4-ylacetyl)amino]-4-(trifluoromethoxy)phenyl}-5-phenylthiophene-2-carboxamide] | – | – | – | – | 33 | ≥ 50000 | 43 | ≥ 50000 | – | – | –
15 | CN1CCN(CC(=O)Nc2cc(C(=O)Nc3nnc(-c4ccccc4)s3)ccc2OC(F)F)CC1 [Example 40, 4-(difluoromethoxy)-3-{[(4-methylpiperazin-1-yl)acetyl]amino}-N-(5-phenyl-1,3,4-thiadiazol-2-yl)benzamide] | – | – | – | – | 530 | ≥ 50000 | 52.4 | ≥ 50000 | – | – | –
16 | O=C(CN1CCOCC1)Nc1cc(C(=O)Nc2ccc(-c3ccccc3F)nc2)ccc1OC1CC1 [Example 133, 4-(cyclopropyloxy)-N-[6-(2-fluorophenyl)pyridin-3-yl]-3-[(morpholin-4-ylacetyl)amino]benzamide] | – | – | – | – | 130 | ≥ 50000 | 54.6 | ≥ 50000 | – | – | –
17 | COc1ccc(C(=O)Nc2nnc(-c3ccccc3)s2)cc1NC(=O)CN1CCOCC1 [4-methoxy-3-[(morpholin-4-ylacetyl)amino]-N-(5-phenyl-1,3,4-thiadiazol-2-yl)benzamide] | – | – | – | – | – | – | – | – | – | higher than expected | < 0.1 µg/mL and < 0.22 µM
18 | COc1ccc(C(=O)Nc2ccc(-c3ccccc3)nc2)cc1NC(=O)C1(N2CCOCC2)CC1 [Example 81, 4-methoxy-3-({[1-(morpholin-4-yl)cyclopropyl]carbonyl}amino)-N-(6-phenylpyridin-3-yl)benzamide] | – | – | – | – | 15 | ≥ 50000 | 23.1 | ≥ 50000 | – | – | –
19 | O=C(CN1CCOCC1)Nc1cc(C(=O)Nc2ccc(-c3ccccc3)nc2)ccc1OC(F)(F)F [Example 15, 3-[(morpholin-4-ylacetyl)amino]-N-(6-phenylpyridin-3-yl)-4-(trifluoromethoxy)benzamide] | – | – | – | – | 48 | ≥ 50000 | 137 | ≥ 50000 | – | – | –
20 | CS(=O)(=O)Cc1ccc(C(=O)Nc2nnc(-c3ccccc3)s2)cc1NC(=O)C1(N2CCOCC2)CC1 [Example 47, 4-[(methylsulfonyl)methyl]-3-({[1-(morpholin-4-yl)cyclopropyl]carbonyl}amino)-N-(5-phenyl-1,3,4-thiadiazol-2-yl)benzamide] | – | – | – | – | 90 | ≥ 50000 | 39.8 | ≥ 50000 | – | – | –
